Key:
[1] = tested on: HSV-1 KOS strain expressing green fluorescent protein (GFP); test: HSV-1 (KOS, GFP reporter) infection of NIH 3T3 cells, flow cytometry of GFP-positive cells; format: cell-based, herpes simplex virus-1 on NIH 3T3 cells; details: for antiviral effect on HSV-1 infection (in words) / percentage of infected (GFP-positive) cells after treatment: NIH 3T3 cells; for antiviral effect on HSV-1 infection (in words): HSV-1 KOS GFP, flow cytometry / fluorescence images; for percentage of infected (GFP-positive) cells after treatment: MOI about 0.1, about 16 hours, no drug gives about 60%
Experimental: Cell culture: NIH 3T3 cells were grown on 15 cm plates in DMEM supplemented with about 5% Fetalplex and about 1% penicillin/streptomycin and kept in an about 37° C. incubator with about 5% CO2. To propagate cells, the experiments involved plating 107 on each […] plate and splitting the cells every 24 hours. For each experimental iteration, the experiments plated 2×10^5 cells/well in a 24-well plate. To minimize variance generated from different batches of cells, the trial group and crossover group were tested and compared using the same batch of cells for each iteration.
Viral infection: HSV-1 KOS strain expressing green fluorescent protein (GFP) in frame with the ICPO protein between amino acids 104 and 105 was used. The virus was prepared by propagation of virus on a confluent monolayer of Vero cells. Supernatants from infected cells were collected and centrifuged to separate cell debris. The cell pellet in residual medium was frozen and thawed three times at about −80° C. and about 37° C., respectively. The residual supernatant was then pooled together with the original supernatant, and viral titers were determined by a standard plaque assay on Vero cell monolayers. Multiplicity of infection (MOI) of about 0.1 was used throughout except as indicated. To control MOI, cells, virus, and drug combinations were added at the same time and incubated at about 37° C. After about 17 hours, culture medium was aspirated, and cells were detached with PBS-EDTA treatment at about 37° C. for about 5 minutes. Detached cells were transferred to flow cytometry tubes, pelleted, and re-suspended in about 1.6% PFA and kept at about 4° C. until analysis. A BD FACS Canto II was used for flow cytometry analysis.
HSV-1 infectious disease model: HSV-1 infection on an NIH 3T3 fibroblast cell line was used as an in vitro model system to search for new therapeutic drug combinations. The antiviral drugs that are used in the therapeutic model include three antiviral cytokines (IFN-α, IFN-β, and IFN-γ), ribavirin, acyclovir, and TNF-α. Virus-infected cells were treated with single drugs or drug combinations and cultured for about 16 hours. The HSV-1 strain used to infect the NIH 3T3 cells encodes a GFP reporter in infected cells, allowing flow cytometric analysis of cells to measure the rate and extent of infection, because the fluorescence intensity of GFP correlated to the presence of virus. Determination of efficacy of drug treatments was made by comparing the number of GFP-negative non-infected cells in the absence or presence of drug treatment. This value was considered the antiviral readout of a drug treatment.
The infectious dose of HSV-1 used (MOI: number of infectious virions per cell) is an important parameter when evaluating the outcome of potential therapies. […] An MOI of about 0.1 was used throughout the studies.

[2] = high doses of ribavirin; cited from earlier work

Compound | viral infection over incubation time, day 1 to day 4 (in words) ([1]; HSV-1-infected cells cultured 1 day to 4 days in presence of drug, flow cytometry) | antiviral effect on HSV-1 infection (in words) [1] | percentage of infected (GFP-positive) cells after treatment [1] | reported side effects [2]
Nc1nc2c(ncn2COCCO)c(=O)[nH]1 [acyclovir] | remained constant as time increased | reduced the infection rate, though a large percentage of cells were infected despite drug treatment | about 15% | 
NC(=O)c1ncn([C@@H]2O[C@H](CO)[C@@H](O)[C@H]2O)n1 [ribavirin] |  |  | about 5% | cause anemia, to be teratogenic in some animal tests, and to inhibit DNA synthesis in a dosage dependent manner
TNF-α |  | potentiated HSV-1 infection, resulting in more infected cells than the non-treated control |  | 
